# Reference: article PMC7248098, “Biochemical characterization and inhibition of the alternative oxidase enzyme from the fungal phytopathogen Moniliophthora perniciosa” (Communications Biology, 2020)
# Several values for one entry are separate records, joined by “and”; a condition that tells them apart may be missing. Equal values may be shown once. Entries after “also recorded” stand apart in the source; their conditions may differ.
# Assays:
# membrane-bound rMpAOX [1] = target: T1, membrane-bound rMpAOX (Moniliophthora perniciosa, UniProt A8QJP8); test: Membrane-bound rMpAOX activity with putative activators (O2 uptake, oxygraph; dose-response); assay type: biochemical; settings: for Increase of membrane-bound rMpAOX oxygen uptake: 1 mM activator; for Fold-change in membrane-bound rMpAOX O2 uptake: 1 mM each, single independent measurements (Fig1a); for EC50: membrane-bound rMpAOX, 4-parameter sigmoid fit, read-out: EC50 of rMpAOX activation;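 as to Fractional velocity, %: 100% is the maximal rate reached in the activator titration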
# Procedure: (§1) E. coli membrane preparation was performed as described with minor modifications. […] The cells were disrupted using two passes at […] through a pre-cooled Constant cell disruption system (Constant Systems Ltd). The lysate was centrifuged for 15 min at 16,000 rcf, and the pelleted unbroken cells and large cell debris were discarded. The supernatant was centrifuged for 90 min at 200,000 rcf to collect the fragmented membranes.
# (§2) Respiration rates were recorded before and after the addition of putative AOX activators, such as 5′-ADP, 5′-AMP, 5′-GDP, 5′-GMP, glyoxylate, oxaloacetate, pyruvate or succinate (1 mM each unless stated otherwise). […] Data were acquired with the Multiskan FC Microplate Photometer (ThermoFisher). […] Absorbance readings were taken periodically and a blank reactions (substrate without enzyme) were included in every assay and were used to determine and subtract the autoxidation rate (background). Proteoliposomes were assayed as described for the E. coli membrane fraction except that no KCN was included and 0.5 µL of the prep (~50 ng rMpAOX) were added into the reaction. When tested, inhibitors were preincubated with the enzyme in reaction buffer for 2–5 min before starting the reaction by the addition of substrate. The path length (i.e., the height of the reaction medium inside the well) was calculated based on the reaction volume and the well cross-section area informed by the supplier. GraphPad Prism 7.0 (GraphPad Software Inc.) was used for function fitting.
# membrane-bound rMpAOX [2] = target: T1, membrane-bound rMpAOX; test: Dose-response assay of inhibitors with membrane-bound, GMP-activated rMpAOX (NADH oxidation); assay type: biochemical; settings: for Fractional velocity, % / activity at 0.025 µM / activity at 0.00025 µM / activity at 25 pM / activity at 0.25 µM / activity at 0.0025 µM: log[I]; for activity at 0.025 µM / activity at 0.00025 µM / activity at 25 pM / activity at 0.25 µM / activity at 0.0025 µM: read-out: Fractional velocity, %; for IC50: membrane-bound, GMP-activated rMpAOX, read-out: IC50
# Procedure: as §1, §2
# T1 sequence (A8QJP8 entry or part of it): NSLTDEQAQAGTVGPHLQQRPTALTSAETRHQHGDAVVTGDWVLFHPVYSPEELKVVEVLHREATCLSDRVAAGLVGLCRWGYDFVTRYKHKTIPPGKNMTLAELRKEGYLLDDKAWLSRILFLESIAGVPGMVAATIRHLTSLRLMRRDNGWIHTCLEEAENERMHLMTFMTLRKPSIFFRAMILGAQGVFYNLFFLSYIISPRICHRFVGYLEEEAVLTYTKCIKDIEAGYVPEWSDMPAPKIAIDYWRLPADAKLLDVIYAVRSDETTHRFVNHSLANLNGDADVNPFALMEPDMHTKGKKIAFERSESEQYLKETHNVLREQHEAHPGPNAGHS
SMILES,Increase of membrane-bound rMpAOX oxygen uptake (membrane-bound rMpAOX [1]),Fold-change in membrane-bound rMpAOX O2 uptake (membrane-bound rMpAOX [1]),"Fractional velocity, % (membrane-bound rMpAOX [2]; M -5.60206 (Fig2b), 2.5 µM)","Fractional velocity, % (membrane-bound rMpAOX [2]; M -6.60206 (Fig2b), 0.25 µM)","Fractional velocity, % (membrane-bound rMpAOX [2]; M -7.60206 (Fig2b), 0.025 µM)",activity at 0.025 µM (membrane-bound rMpAOX [2]; M -7.60206 (Fig2b)),"Fractional velocity, % (membrane-bound rMpAOX [2]; M -8.60206 (Fig2b), 0.0025 µM)","Fractional velocity, % (membrane-bound rMpAOX [2]; M -9.60206 (Fig2b), 0.00025 µM)",activity at 0.00025 µM (membrane-bound rMpAOX [2]; M -9.60206 (Fig2b)),"Fractional velocity, % (membrane-bound rMpAOX [2]; M -10.6021 (Fig2b), 25 pM)",activity at 25 pM (membrane-bound rMpAOX [2]; M -10.6021 (Fig2b)),IC50 (membrane-bound rMpAOX [2]),other results
"Nc1ncnc2c1ncn2[C@@H]1O[C@H](COP(=O)(O)OP(=O)(O)O)[C@@H](O)[C@H]1O [ADP, 5′-ADP]",4.5 times,5 and 3.654 and 4.737,,,,,,,,,,,"Fractional velocity, % (membrane-bound rMpAOX [1]; [activator] 0.025 mM (Fig1b)): 29.9% and 27.8%; Fractional velocity, % (membrane-bound rMpAOX [1]; [activator] 0.075 mM (Fig1b)): 31.9% and 29.4%; Fractional velocity, % (membrane-bound rMpAOX [1]; [activator] 0.175 mM (Fig1b)): 33.7% and 32.1%; Fractional velocity, % (membrane-bound rMpAOX [1]; [activator] 0.375 mM (Fig1b)): 36.2% and 33.2%; Fractional velocity, % (membrane-bound rMpAOX [1]; [activator] 0.625 mM (Fig1b)): 46.5% and 35.2%; Fractional velocity, % (membrane-bound rMpAOX [1]; [activator] 1.625 mM (Fig1b)): 64.4% and 58.2%; Fractional velocity, % (membrane-bound rMpAOX [1]; [activator] 3.625 mM (Fig1b)): 97.7% and 79.7%; Fractional velocity, % (membrane-bound rMpAOX [1]; [activator] 6.125 mM (Fig1b)): 128.8% and 99.5%; EC50 (membrane-bound rMpAOX [1]): ~6500 µM"
"C/C(=C\Cc1c(O)c(Cl)c(C)c(C=O)c1O)CC/C=C(\C)[C@@H]1CC(=O)C(C)(C)O1 [AF, ascofuranone]",,,3.068% and 1.958% and 7.541%,2.9011% and 3.314% and 8.873%,31.9402% and 19.7329%,20.3%,81.2456% and 95.1772% and 65.5719%,94.8574% and 87.6342%,88%,94.1707% and 88.3377%,93.1%,0.0088 µM,"Fractional velocity, % (membrane-bound rMpAOX [2]; M -4.60206 (Fig2b), 25 µM): 3.958% and 2.609% and 7.671%"
"Nc1ncnc2c1ncn2[C@@H]1O[C@H](COP(=O)(O)O)[C@@H](O)[C@H]1O [AMP, 5′-AMP]",8.1 times,7.569 and 7.49 and 9.2495,,,,,,,,,,,"Fractional velocity, % (membrane-bound rMpAOX [1]; [activator] 0.025 mM (Fig1b)): 22.2% and 18.4%; Fractional velocity, % (membrane-bound rMpAOX [1]; [activator] 0.075 mM (Fig1b)): 33.8% and 27.9%; Fractional velocity, % (membrane-bound rMpAOX [1]; [activator] 0.175 mM (Fig1b)): 53.8% and 45.3%; Fractional velocity, % (membrane-bound rMpAOX [1]; [activator] 0.375 mM (Fig1b)): 81.6% and 66.1%; Fractional velocity, % (membrane-bound rMpAOX [1]; [activator] 0.625 mM (Fig1b)): 102% and 87.9%; Fractional velocity, % (membrane-bound rMpAOX [1]; [activator] 1.125 mM (Fig1b)): 134.8% and 120.3%; Fractional velocity, % (membrane-bound rMpAOX [1]; [activator] 2.125 mM (Fig1b)): 172.4% and 157.6%; Fractional velocity, % (membrane-bound rMpAOX [1]; [activator] 4.125 mM (Fig1b)): 201.8% and 188.2%; Fractional velocity, % (membrane-bound rMpAOX [1]; [activator] 6.625 mM (Fig1b)): 199.8%; EC50 (membrane-bound rMpAOX [1]): 918 µM and 910 µM"
"CC(C)=CCc1c(O)c(Cl)c(C)c(C=O)c1O [CD, colletochlorin D]",,,6.725% and 4.7683% and 12.1201%,26.8171% and 38.1389%,83.3186% and 82.5195%,81.9%,98.2807% and 91.2399%,94.0253% and 92.2465%,98%,93.9344% and 89.9529%,94.5%,0.115 µM,activity at 0.25 µM (membrane-bound rMpAOX [2]; M -6.60206 (Fig2b)): 28%; activity at 0.0025 µM (membrane-bound rMpAOX [2]; M -8.60206 (Fig2b)): 95.8%
"Nc1nc2c(ncn2[C@@H]2O[C@H](COP(=O)(O)OP(=O)(O)O)[C@@H](O)[C@H]2O)c(=O)[nH]1 [GDP, 5′-GDP]",did not have any noticeable effect; also recorded: no effect,1.198 and 1.036 and 1.118,,,,,,,,,,,Increase of rMpAOX basal rate (membrane-bound rMpAOX [1]; 6.5 mM): 1.5 times
"O=CC(=O)O [GLYOX, glyoxylate]",,0.6271 and 0.9309 and 0.7633,,,,,,,,,,,
"CCCCCCCCOC(=O)c1cc(O)c(O)c(O)c1 [OG, octyl gallate]",,,37.6641% and 53.0018% and 32.2387%,91.8565% and 76.0465%,96.9123% and 87.3681%,99%,100.043% and 88.594%,96.5387% and 94.2199%,98%,93.2034% and 90.1921%,93.9%,1.67 µM,"Fractional velocity, % (membrane-bound rMpAOX [2]; M -4.60206 (Fig2b), 25 µM): 3.004% and 2.353% and 7.7435%; activity at 0.25 µM (membrane-bound rMpAOX [2]; M -6.60206 (Fig2b)): 92.7%; activity at 0.0025 µM (membrane-bound rMpAOX [2]; M -8.60206 (Fig2b)): 98.8%"
